Entries after “also recorded” stand apart in the source; their conditions may differ.
Tests used:
NF-κB [1] = assay: TNFα-induced NF-κB phosphorylation in SH-SY5Y cells, Western blot; format: cell-based, human
Description: (§1) Cells and Cell Culture—Human neuroblastoma (SH-SY5Y) cells were obtained from American Type Cell Culture (ATCC Number CRL-2266; Manassas, Va., USA). SH-SY5Y was cultured and maintained in F12:DMEM (1:1, v/v) media condition with 10% FBS and 1% penicillin/streptomycin in a 37° C./5% CO2 exchange condition. Passages 3-10 were used in the present study and confluent cells were subjected to stimulation with drugs for indicated times under serum-starved conditions.
(§2) Preparation of Phospholipid Vesicles—Phospholipid Vesicles in Phosphate-Buffered saline (PBS; 1 mg/mL) were prepared by sonication as previously described (8). Briefly, pure dilinoeoylphosphatidylcholine (DLPC) in chloroform was dried down under N2 and 1 mL of PBS was added by vortexing. The mix was then sonicated (Branson sonicator set at 100% duty cycle and 10% power) for 1 min. The sonicated preparation was incubated for 30 min at 37° C. in a water bath, and samples were resonicated for 5 min at 95% duty cycle and 10% power and filtered before use.
(§3) Western Blot Analysis—After incubation with drugs for the indicated times and doses, cells were washed twice with ice-cold PBS-T on ice. Cells were lysed by adding buffer [NaF 1 mmol/L, NaCl 5 mmol/L, EDTA 1 mmol/L, NP40 1 mmol/L (Roche Diagnostics, Indianapolis, Ind.), HEPES 10 mmol/L, pepstatin A 1 mg/mL, leupeptin 1 mg/mL, aprotinin 1 mg/mL, Na3VO4 1 mmol/L, and PMSF 1 mmol/L] and total protein was extracted. An equal amount of cell proteins were separated by 12% SDS-PAGE and were analyzed by Western blot using specific antibodies to TNFα, Aβ, APP, phospho-ERK1/2, ERK1/2, phospho-tau, tau, phospho-IκBα, IκBα, phospho-NF-κB and NF-κB. Blots for the similar experiments were also subjected to β-actin for a loading control. Band intensity was analyzed with the Alpha-Innotech Fluor Chem™ HD Imager.
The effect of a selective MAPK inhibitor, U0126, on a TNFα induction of MAPK and nuclear factor kappa B (NF-κB) was evaluated. […] TNFα induced a 3-fold increase in NF-κB phosphorylation in SH-SY5Y cells at 5 min after treatment (FIG. 4). DLPC blocked the increase in neuronal NF-κB phosphorylation by ˜50% over 5-30 min post treatment with TNFα.

ERK1/2 = assay: TNFα- or H2O2-induced ERK1/2 (MAPK) phosphorylation in SH-SY5Y cells, Western blot; format: cell-based, human; conditions: for TNFα-induced ERK1/2 phosphorylation: TNFα 10 ng/ml
Description: as §1, §2, §3
Experiments were undertaken to determine if DLPC can block a tumor necrosis factor (TNFα) activation of MAPK in neuroblastoma cells. […]

NF-κB [2] = assay: LPS- or TNFα-induced NF-κB phosphorylation in HepG2 cells, Western blot; format: cell-based, human; conditions: for TNFα-induced activation of NF-κB (p-NF-κB): DLPC 12 μmol/L, DOPC 12 μmol/L or LA 25 μmol/L for 30 min, TNFα 10 ng/ml, 5 min
Description: HepG2 cells were pre-incubated with DLPC (12 μM) for 30 min. and then incubated with LPS (5 μg/ml) for 24 h in DMEM serum-depleted media. Phospho-IκBα and phospho-NF-kB (p-IκBα and p-NF-κB) expression were analyzed by Western blot.
as §3, with “Blots for the similar experiments were also subjected to β-actin for a loading control.” left out

IκBα [3] = assay: TNFα-induced IκBα phosphorylation and degradation in SH-SY5Y cells, Western blot; format: cell-based, human; conditions: TNFα 10 ng/ml
Description: as §3, with “Blots for the similar experiments were also subjected to β-actin for a loading control.” left out

tau = assay: Agonist-induced tau phosphorylation (AT8) in SH-SY5Y cells, Western blot; format: cell-based, human
Description: as §1, §2, §3
The effect of pro-inflammatory and oxidative stress agonists on tau phosphorylation were also evaluated in SH-SY5Y cells.

amyloid-β = assay: Amyloid-β secretion into conditioned media of SH-SY5Y cells, Western blot; format: cell-based, human
Description: SH-SY5Y cells were pretreated with DLPC (12 μM) for 30 minutes and then incubated with LPS (100 ng/mL) for 24 h. Conditioned media from each experiment were collected and subjected to Western blot analysis for amyloid-β. Loading volumes were adjusted relative to total cell protein. Histograms representing densitometry analysis of amyloid-(3 and are expressed as mean±SEM of at least 3 independent experiments. *P<0.001 vs control and **P<0.001 vs LPS alone.
Cells and Cell Culture—Human neuroblastoma (SH-SY5Y) cells were obtained from American Type Cell Culture (ATCC Number CRL-2266; Manassas, Va., USA). SH-SY5Y was cultured and maintained in F12:DMEM (1:1, v/v) media condition with 10% FBS and 1% penicillin/streptomycin in a 37° C./5% CO2 exchange condition. Passages 3-10 were used in the present study and confluent cells were subjected to stimulation with drugs for indicated times under serum-starved conditions. […]
Aβ quantification—Aβ immuno-quantification was performed in conditioned media after incubation with the inhibitors/agonists and/or phospholipids for the indicated times and doses. […] Band intensities were analyzed using the Spot-densitometer application of the AlphaEaseFC software and values were corrected with total cell proteins in cell lysates. […] Total protein concentration was determined using the BCA protein assay (Pierce, Rockford, Ill.) in cell lysate. […]

IκBα [4] = assay: LPS-induced IκBα phosphorylation in HepG2 cells, Western blot; format: cell-based, human; conditions: DLPC 12 μM 30 min, LPS 5 μg/ml, 24 h
Description: HepG2 cells were pre-incubated with DLPC (12 μM) for 30 min. and then incubated with LPS (5 μg/ml) for 24 h in DMEM serum-depleted media. Phospho-IκBα and phospho-NF-kB (p-IκBα and p-NF-κB) expression were analyzed by Western blot. Histograms represent densitometry analysis of p-IκBα (A) and p-NF-κB (B) and values are shown relative to β-actin and are expressed as mean±SEM of 3 replicate experiments. *P<0.05 vs LPS alone.
as §3

Kupffer cells = Kupffer cells of ethanol-fed rats; cited from earlier work
NF-κB [5] = assay: LPS and TNFα induction of NF-κB in CaCO-2 cells (unpublished observations); format: cell-based; conditions: CaCO-2 cell line; unpublished observations of the inventors
TLR-4 = assay: LPS-induced TLR-4 expression in HepG2 cells, Western blot; format: cell-based, human; conditions: DLPC 12 μmol/L 30 min, LPS 5 μg/ml, 24 h
Description: HepG2 cells were pre-incubated with DLPC (12 μmol/L) for 30 min. and then incubated with LPS (5 μg/ml) for 24 h in DMEM serum-depleted media. Cell lysates were analyzed for TLR-4 expression by Western blot. Values are presented relative to β-actin and are expressed as mean±SEM for 3 replicate experiments. *P<0.05 vs LPS alone.
as §3

[6] = tested on: amyloid precursor protein (APP); assay: Basal amyloid precursor protein expression in SH-SY5Y cells, Western blot; format: cell-based, human; conditions: unstimulated SH-SY5Y; DLPC 12 μM, 24 h
Description: SH-SY5Y cells were incubated with DLPC (12 μM) for 24 h and APP expression was analyzed in total cell lysates by Western blotting. Histograms representing densitometry analysis of APP and the values are presented relative to total β-actin control and are expressed as mean±SEM of at least 3 independent experiments. *P<0.05 vs control.
as §1
Preparation of Phospholipid Vesicles—Phospholipid Vesicles in Phosphate-Buffered saline (PBS; 1 mg/mL) were prepared by sonication as previously described (8). […]
Western Blot Analysis—After incubation with drugs for the indicated times and doses, cells were washed twice with ice-cold PBS-T on ice. […] An equal amount of cell proteins were separated by 12% SDS-PAGE and were analyzed by Western blot using specific antibodies to TNFα, Aβ, APP, phospho-ERK1/2, ERK1/2, phospho-tau, tau, phospho-IκBα, IκBα, phospho-NF-κB and NF-κB. […] Band intensity was analyzed with the Alpha-Innotech Fluor Chem™ HD Imager.

TNFα = assay: LPS-induced TNFα expression in HepG2 cells, Western blot; format: cell-based, human; conditions: DLPC 12 μmol/L 30 min, LPS 5 μg/ml, 24 h
Description: HepG2 cells were pre-incubated with DLPC (12 μmol/L) for 30 min and then incubated with LPS (5 μg/ml) for 24 h in DMEM serum-depleted media. Cell lysates were analyzed for TNFα expression by Western blot. Values are presented relative to β-actin and are expressed as mean±SEM for 3 replicate experiments. *P<0.05 vs LPS alone.
as §3

[7] = 10 μM pretreatment 30 min, TNFα 10 ng/ml
[8] = inhibitor 10 μM pretreatment 30 min
[9] = DLPC 12 μM 30 min, TNFα 10 ng/ml

CS/C(N)=C(C#N)/C(C#N)=C(\N)SC [U0124, reference compound]
NF-κB phosphorylation status (NF-κB [1]; [7]): no effect
TNFα-induced ERK1/2 phosphorylation (ERK1/2; [8]): no effect

CCCCCCCC/C=C\CCCCCCCC(=O)OC[C@H](COP(=O)([O-])OCC[N+](C)(C)C)OC(=O)CCCCCCC/C=C\CCCCCCCC [DOPC, dioleoyl phosphatidylcholine, reference compound]
TNFα-induced activation of NF-κB (p-NF-κB) (NF-κB [2]): no impact

N#CC(=C(/N)Sc1ccccc1N)/C(C#N)=C(\N)Sc1ccccc1N [U0126, reference compound]
reduction of TNFα-induced NF-κB phosphorylation (NF-κB [1]; [7]): ~50%
reduction of TNFα-induced IκBα phosphorylation (IκBα [3]; 10 μM pretreatment 30 min): ~50%
TNFα-induced ERK1/2 phosphorylation (ERK1/2; [8]): blocked the phosphorylation of ERK1/2
TNFα-induced phosphorylation of tau (AT8) (tau; U0126 10 μM pretreatment 30 min, TNFα 10 ng/ml, 5 min): completely blocked

CCCCC/C=C\C/C=C\CCCCCCCC(=O)OC[C@H](COP(=O)([O-])OCC[N+](C)(C)C)OC(=O)CCCCCCC/C=C\C/C=C\CCCCC [DLPC, dilinoleoylphosphatidylcholine]
TNFα-induced NF-κB phosphorylation (NF-κB [1]; [9]): inhibited TNFα-induced NF-κB phosphorylation
block of the TNFα-induced increase in neuronal NF-κB phosphorylation (NF-κB [1]; DLPC 12 μM, 5-30 min post treatment with TNFα): ~50%
IκBα degradation (IκBα [3]; DLPC 12 μM 30 min): prevented IkBα degradation
TNFα-induced IκBα phosphorylation (IκBα [3]; DLPC 12 μM 30 min): blocked TNFα-induced IkBα phosphorylation
LPS-induced increase in Aβ secretion (amyloid-β; DLPC 12 μM 30 min, LPS 100 ng/mL, 24 h): completely blocked
decrease of basal secretion of Aβ (amyloid-β; DLPC 12 μM, 24 h conditioned media): 65%
LPS-induced IκBα phosphorylation (IκBα [4]): inhibits LPS-induced IkBα and NF-κB phosphorylation after 24 h
LPS-induced NF-κB phosphorylation / activation (NF-κB [2]; DLPC 12 μM 30 min, LPS 5 μg/ml, 24 h): inhibits LPS-induced IkBα and NF-κB phosphorylation after 24 h; also recorded: inhibits activation of NF-κB in HepG2 cells for up to 24 h
TNFα-induced activation of NF-κB (p-NF-κB) (NF-κB [2]): block activation of NF-κB
NF-κB activation (Kupffer cells): decreases induction of TNFα secretion and NF-κB activation
induction of TNFα secretion (Kupffer cells): decreases induction of TNFα secretion
hydrogen peroxide induction of MAPK (ERK1/2; DLPC): block a hydrogen peroxide induction of MAPK
TNFα-induced ERK1/2 phosphorylation (ERK1/2; DLPC 12 μM pre-incubated 30 min): block ERK1/2 phosphorylation for 30 min
LPS and TNFα induction of NF-κB (NF-κB [5]): can block an LPS and TNFα induction of NF-κB
LPS-induced increase in TLR-4 expression (TLR-4): blocks an LPS-induced increase in TLR-4 expression
decrease of basal expression of amyloid precursor protein (APP) [6]: ~25%
LPS-induced tau phosphorylation (tau; DLPC 12 μM 30 min, LPS 100 ng/ml): blocked the effect both agonists and gave rise to tau phosphoylation levels lower than control values by 30 min
TNFα-induced tau phosphorylation (tau; [9]): blocked the effect both agonists and gave rise to tau phosphoylation levels lower than control values by 30 min
LPS-induced increase in TNFα expression (TNFα): inhibits an LPS-induced increase in TNFα expression

Reference: patent US8912355B2, “Linoleic phospholipids and uses thereof for inhibiting inflammatory and neurodegenerative processes” (University of Ottawa Heart Institute, priority 2009, dated 2014)
